Results taken from the NIST ThermoML archive (doi:10.1021/je1001329).

Assays:
[1] = 298.15 K, Ring tensiometer
[2] = xn = mol fraction of the nth substance listed; conditions: 298.15 K, Ring tensiometer

CC#N [acetonitrile]
Conditions | surface tension liquid-gas [mN/m]
[1] | 27.76

CC#N [acetonitrile] + CC(C)O
[2]
Conditions | surface tension liquid-gas [mN/m]
x1 = 0.2001 | 21.05
x1 = 0.3621 | 21.55
x1 = 0.4885 | 22.15
x1 = 0.5398 | 22.44
x1 = 0.6001 | 22.88
x1 = 0.7 | 23.84
x1 = 0.8001 | 24.94
x1 = 0.8984 | 26.23
x1 = 0.9579 | 27.1
x1 = 0.9701 | 27.28
x1 = 0.9851 | 27.55

O [water]
Conditions | surface tension liquid-gas [mN/m]
[1] | 72.09

CC#N [acetonitrile] + O
[2]
Conditions | surface tension liquid-gas [mN/m]
x2 = 0.2032 | 29.46
x2 = 0.4087 | 30.95
x2 = 0.5149 | 31.45
x2 = 0.6041 | 31.68
x2 = 0.7459 | 32.92
x2 = 0.8145 | 33.97
x2 = 0.8773 | 37.97
x2 = 0.8977 | 39.63
x2 = 0.905 | 40.54
x2 = 0.9484 | 49.39
x2 = 0.9702 | 55.92
x2 = 0.9851 | 62.36

CC(C)O [propan-2-ol]
Conditions | surface tension liquid-gas [mN/m]
[1] | 20.95

CC(C)O [propan-2-ol] + O
[2]
Conditions | surface tension liquid-gas [mN/m]
x2 = 0.099 | 21.65
x2 = 0.2949 | 21.97
x2 = 0.5018 | 22.28
x2 = 0.5993 | 22.74
x2 = 0.7021 | 23.28
x2 = 0.8 | 24.37
x2 = 0.8502 | 25.04
x2 = 0.8991 | 26.64
x2 = 0.945 | 32.36
x2 = 0.9598 | 35.83
x2 = 0.9697 | 39.36
